In article PMC11555526, “Development of 2-Aminoadenine-Based Proteolysis-Targeting Chimeras (PROTACs) as Novel Potent Degraders of Monopolar Spindle 1 and Aurora Kinases” (ACS Pharmacology & Translational Science, 2024):
Values joined by “and” are separate entries in the source; they are usually repeats but may differ in a detail not shown here. Equal values may be shown once.

Tests used:
[1] = biological target: T1, TTK (MV4-11^HiBiT-TTK cells) (Homo sapiens, UniProt P33981); assay: HiBiT assay, TTK degradation; type: cell-based; design: key to Dmax (maximal degradation) TTK: compounds with degradation less than 15% reported as “inactive”; details: 6 h treatment, MV4-11^HiBiT-TTK cells; for DC50: read-out: DC50 (half-maximal degradation concentration) TTK
T1 construct: expressed in transfected cells; host or cells: MV4-11, lentiviral transduction (pRRL-PGK-HiBiT entry vector)
T1 sequence (P33981 1-857): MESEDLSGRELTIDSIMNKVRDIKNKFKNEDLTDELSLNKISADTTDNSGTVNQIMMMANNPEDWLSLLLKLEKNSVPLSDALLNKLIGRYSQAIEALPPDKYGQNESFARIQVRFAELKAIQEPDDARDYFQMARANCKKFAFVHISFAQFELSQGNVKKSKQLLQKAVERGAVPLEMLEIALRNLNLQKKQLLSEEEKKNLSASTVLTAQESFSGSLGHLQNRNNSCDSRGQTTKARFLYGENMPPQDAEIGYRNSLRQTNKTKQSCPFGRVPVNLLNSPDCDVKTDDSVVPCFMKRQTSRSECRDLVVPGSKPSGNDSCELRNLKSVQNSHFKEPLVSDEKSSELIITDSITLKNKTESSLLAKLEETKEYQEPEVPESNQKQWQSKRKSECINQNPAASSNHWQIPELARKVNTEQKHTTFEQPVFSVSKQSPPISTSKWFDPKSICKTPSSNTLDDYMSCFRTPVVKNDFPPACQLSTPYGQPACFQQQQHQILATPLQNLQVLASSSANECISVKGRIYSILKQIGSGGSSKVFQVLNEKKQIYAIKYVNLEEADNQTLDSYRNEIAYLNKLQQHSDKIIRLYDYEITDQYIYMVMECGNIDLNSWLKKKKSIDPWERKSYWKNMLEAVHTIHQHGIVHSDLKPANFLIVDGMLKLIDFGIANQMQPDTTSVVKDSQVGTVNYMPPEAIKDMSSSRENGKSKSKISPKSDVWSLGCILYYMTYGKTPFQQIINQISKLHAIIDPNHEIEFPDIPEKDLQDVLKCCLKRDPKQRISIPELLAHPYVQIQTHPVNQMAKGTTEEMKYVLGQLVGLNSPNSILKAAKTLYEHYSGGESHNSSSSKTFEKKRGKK
Experimental: (§1) The effects of the synthesized compounds on AURKA, AURKB, and TTK mitotic kinases were then assessed in cellular systems. For this, HiBiT cell lines were generated for all three mitotic kinases. A small 11 amino acid peptide fragment of luciferase (HiBiT) was fused to the coding sequence of the proteins and stably transduced in the MV4-11 cell line (MV4-11^AURKA-HiBiT, MV4-11^AURKB-HiBiT, and MV4-11^HiBiT-TTK).
(§2) The stable cell lines MV4-11^AURKA-HiBiT, MV4-11^AURKB-HiBiT, and MV4-11^HiBiT-TTK cells were generated by lentiviral infection. Lentivirus was produced using the respective HiBiT vector, plasmids psPAX2, and pMD2.G in HEK293 cells. The virus supernatant was filtered and MV4-11 cells were doubly infected with the supernatant. The cells were selected after 48 h of infection until the control cells were dead to get the stable cell line.
(§3) The cells stably expressing HiBiT-tagged protein were seeded into 96-well plates and treated with serial dilutions of compounds for the indicated time points. At the end point, the assay was performed using the Nano-Glo HiBiT Lytic Detection System (Promega) according to the manufacturer’s instruction. Luminescence was measured on a GloMax 96 Microplate Luminometer (Promega) or a Tecan Spark Multiplate reader (Tecan). DC50 was calculated using concentrations showing sigmoidal behavior with the dose–response (four parameters) equation in Prism (GraphPad).

[2] = biological target: T2, AURKB (MV4-11^AURKB-HiBiT cells) (Homo sapiens, UniProt Q96GD4); assay: HiBiT assay, AURKB degradation; type: cell-based; design: key to Dmax (maximal degradation) AURKB: compounds with degradation less than 15% reported as “inactive”; details: 6 h treatment; for DC50: read-out: DC50 (half-maximal degradation concentration) AURKB
T2 construct: expressed in transfected cells; host or cells: MV4-11, lentiviral transduction (pRRL-PGK vector)
Experimental: as §1, §2, §3

[3] = system: MV4-11 cells (naive); assay: alamarBlue cell viability assay; type: cell-based, human; details: 72 h treatment, MV4-11 cells (naive); for EC50: read-out: EC50 (concentration that decreases cell viability by 50%)
Experimental: Finally, to study the effect of the compounds on cancer cell survival, MV4-11 cells were treated with various concentrations of the chimeras and the cell viability was assessed after 72 h. […] As opposed to the parent inhibitor MPS1-IN-3, its derivatives except 40 were not cytotoxic (Figure S7B, Table 5). […] In addition, most of the SF1-based derivatives affected the viability of MV4-11 cells in nanomolar concentrations (Table 5).
For the alamarBlue cell viability assay, cells were seeded in 96-well plates and treated with indicated concentrations of the compounds or vehicle. A few hours before the experimental end point (72 h, unless otherwise stated), the cells were incubated with the alamarBlue reagent. Finally, fluorescence (excitation: 550 nm and emission: 600 nm) or absorbance (570 nm with reference at 600 nm) was measured on a Tecan Spark Multiplate reader (Tecan).

[4] = biological target: T3, AURKA (MV4-11^AURKA-HiBiT cells) (Homo sapiens, UniProt O14965); assay: HiBiT assay, AURKA degradation; type: cell-based; design: key to Dmax (maximal degradation) AURKA: compounds with degradation less than 15% reported as “inactive”; details: 6 h treatment, MV4-11^AURKA-HiBiT cells; for DC50: read-out: DC50 (half-maximal degradation concentration) AURKA
T3 construct: expressed in transfected cells; host or cells: MV4-11, lentiviral transduction
T3 sequence (O14965 1-403): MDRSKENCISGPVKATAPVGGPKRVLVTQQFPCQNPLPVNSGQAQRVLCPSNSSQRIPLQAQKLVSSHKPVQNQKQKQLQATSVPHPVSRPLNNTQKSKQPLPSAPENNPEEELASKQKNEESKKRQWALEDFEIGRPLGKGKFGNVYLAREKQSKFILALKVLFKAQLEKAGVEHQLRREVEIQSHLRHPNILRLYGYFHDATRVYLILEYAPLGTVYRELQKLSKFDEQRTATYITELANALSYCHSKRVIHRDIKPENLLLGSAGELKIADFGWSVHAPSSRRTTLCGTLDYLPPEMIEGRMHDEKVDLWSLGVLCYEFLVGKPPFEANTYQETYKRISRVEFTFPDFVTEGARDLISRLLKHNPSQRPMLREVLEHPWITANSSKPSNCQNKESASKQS
Experimental: as §1, §2, §3

T2 sequence (Q96GD4 1-345 isoform Q96GD4-5): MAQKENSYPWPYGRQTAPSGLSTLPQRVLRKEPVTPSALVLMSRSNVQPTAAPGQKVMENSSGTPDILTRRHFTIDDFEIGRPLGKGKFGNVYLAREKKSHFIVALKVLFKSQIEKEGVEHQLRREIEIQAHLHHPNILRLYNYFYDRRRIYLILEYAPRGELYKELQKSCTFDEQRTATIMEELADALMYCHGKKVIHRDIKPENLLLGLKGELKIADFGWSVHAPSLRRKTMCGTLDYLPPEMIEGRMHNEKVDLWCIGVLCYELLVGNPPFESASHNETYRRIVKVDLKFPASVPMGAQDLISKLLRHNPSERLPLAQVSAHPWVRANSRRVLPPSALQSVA

| Compound | Dmax (maximal degradation) TTK [1] | DC50 [1] [nM] | DC50 (half-maximal degradation concentration) AURKB [2] | Dmax (maximal degradation) AURKB [2] | EC50 [3] [nM] | Dmax (maximal degradation) AURKA [4] | DC50 [4] [nM] | DC50 (half-maximal degradation concentration) TTK [1] | EC50 (concentration that decreases cell viability by 50%) [3] | DC50 (half-maximal degradation concentration) AURKA [4] | DC50 [2] [nM] |
| --- | --- | --- | --- | --- | --- | --- | --- | --- | --- | --- | --- |
| CC(C)S(=O)(=O)c1ccccc1Nc1nc(Nc2ccc(N3CCN(C(=O)CCC(=O)NCCNc4cccc5c4C(=O)N(C4CCC(=O)NC4=O)C5=O)CC3)cc2)nc2[nH]cnc12 (centres unmarked) [Compound 30] | 27.20% | 468 | – (compounds with degradation less than 25% were not calculated and reported as “–”) | 19.90% | 405 | 49.10% | 17 |  |  |  |  |
| COc1cc(N2CCC(OCC(=O)NCCNc3cccc4c3C(=O)N(C3CCC(=O)NC3=O)C4=O)CC2)ccc1Nc1nc(Nc2ccccc2S(=O)(=O)C(C)C)c2nc[nH]c2n1 (centres unmarked) [Compound 34] | inactive |  | – (compounds with degradation less than 25% were not calculated and reported as “–”) | inactive |  | inactive |  | – (compounds with degradation less than 25% were not calculated and reported as “–”) | — (compounds with decrease of cell viability less than 50% were not calculated and reported as “—”) | – (compounds with degradation less than 25% were not calculated and reported as “–”) |  |
| COc1cc(N2CCC(OCC(=O)NCCCNc3cccc4c3C(=O)N(C3CCC(=O)NC3=O)C4=O)CC2)ccc1Nc1nc(Nc2ccccc2S(=O)(=O)C(C)C)c2nc[nH]c2n1 (centres unmarked) [Compound 35] | inactive |  | – (compounds with degradation less than 25% were not calculated and reported as “–”) | inactive |  | inactive |  | – (compounds with degradation less than 25% were not calculated and reported as “–”) | — (compounds with decrease of cell viability less than 50% were not calculated and reported as “—”) | – (compounds with degradation less than 25% were not calculated and reported as “–”) |  |
| COc1cc(N2CCC(OCC(=O)NCCCCNc3cccc4c3C(=O)N(C3CCC(=O)NC3=O)C4=O)CC2)ccc1Nc1nc(Nc2ccccc2S(=O)(=O)C(C)C)c2nc[nH]c2n1 (centres unmarked) [Compound 36] | inactive |  | – (compounds with degradation less than 25% were not calculated and reported as “–”) | inactive |  | inactive |  | – (compounds with degradation less than 25% were not calculated and reported as “–”) | — (compounds with decrease of cell viability less than 50% were not calculated and reported as “—”) | – (compounds with degradation less than 25% were not calculated and reported as “–”) |  |
| COc1cc(N2CCC(OCC(=O)NCCOCCOCCNc3cccc4c3C(=O)N(C3CCC(=O)NC3=O)C4=O)CC2)ccc1Nc1nc(Nc2ccccc2S(=O)(=O)C(C)C)c2nc[nH]c2n1 (centres unmarked) [Compound 38] | 16.10% |  | – (compounds with degradation less than 25% were not calculated and reported as “–”) | inactive |  | inactive |  | – (compounds with degradation less than 25% were not calculated and reported as “–”) | — (compounds with decrease of cell viability less than 50% were not calculated and reported as “—”) | – (compounds with degradation less than 25% were not calculated and reported as “–”) |  |
| COc1cc(N2CCC(OCC(=O)N3CCN(c4cccc5c4C(=O)N(C4CCC(=O)NC4=O)C5=O)CC3)CC2)ccc1Nc1nc(Nc2ccccc2S(=O)(=O)C(C)C)c2nc[nH]c2n1 (centres unmarked) [Compound 40] | 23.00% |  |  | 43.70% | 836 | 41.60% | 282 | – (compounds with degradation less than 25% were not calculated and reported as “–”) |  |  | 1680 |
| COc1cc(N2CCC(OCC(=O)NCCNC(=O)CCCC(=O)Nc3cccc4c3C(=O)N(C3CCC(=O)NC3=O)C4=O)CC2)ccc1Nc1nc(Nc2ccccc2S(=O)(=O)C(C)C)c2nc[nH]c2n1 (centres unmarked) [Compound 41] | inactive |  | – (compounds with degradation less than 25% were not calculated and reported as “–”) | inactive |  | inactive |  | – (compounds with degradation less than 25% were not calculated and reported as “–”) | — (compounds with decrease of cell viability less than 50% were not calculated and reported as “—”) | – (compounds with degradation less than 25% were not calculated and reported as “–”) |  |
| Cc1ncsc1-c1ccc(CNC(=O)[C@@H]2C[C@@H](O)CN2C(=O)[C@@H](NC(=O)CCCC(=O)N2CCN(c3ccc(Nc4nc(NC5CCCCC5)c5nc[nH]c5n4)cc3)CC2)C(C)(C)C)cc1 [Compound 43] | 32.70% | 1960 |  | 33.80% | 584 | 55% and 55.60% | 684 |  |  |  | 2280 |
